This is an account of results in patent publication US6147107A, “Specific inhibition of the P42/44 mitogen activated protein (map) kinase cascade sensitizes tumor cells” (priority 1998, dated 2000).

For assay [1], the system named is MEK1 and MEK2. Particulars: general statement on known inhibitors; cited from earlier work.
Assay [2] deals with A431 cells. Kind of assay: TUNEL assay, apoptosis of A431 cells after radiation. As to conditions: 2 μM inhibitor + 2 Gy, 24 hours. It counts as cell-based, human. How it is done: The ability of the cells to survive was assessed using TUNEL assays 24 hours after irradiation and the results are depicted in FIG. 4.
The test system of another assay is HepG2 hepatoma cells. Description: TUNEL assay, HepG2 hepatoma cells after radiation. It counts as cell-based. As to conditions: SL327 (2 μM) + 2×2 Gy, 12 hours. Here is the method:
(§1) Experimental cells were exposed to radiation (2×2 Gy), or treated with the p42/44 MAP kinase inhibitory drug SL327 (2 μM), or treated with SL327 and exposed to radiation. Twelve hours after the final irradiation, cells were assessed by the TUNEL assay.
(§2) This is highly relevant because the neoplastic cells which are targeted for destruction by radiation therapy are rapidly proliferating, in contrast to most normal slowly growing somatic cells. Primary hepatocytes (representing slow growing "normal" cells) and HepG2 hepatoma cells derived from a cancerous cell line were cultured under identical conditions. Control cells of both types were left untreated. Matched samples of both cell types were treated with the p42/44 MAP kinase cascade inhibitory drug SL327, or exposed to radiation (2×2 Gy), or treated with SL327 and exposed to radiation. Twelve hours after the final irradiation, cells were processed and the number of dead (apoptoic) cells was determined by the TUNEL assay. […] Furthermore, the effect is specific for rapidly growing cells.

The test system of the next assay is primary hepatocytes. Description: TUNEL assay, primary hepatocytes after radiation. It counts as cell-based. As to conditions: SL327 (2 μM) + 2×2 Gy, 12 hours. Here is the method: as §1, §2
Assay [3] has as its system MEK1 and MEK2. Kind of assay: Inhibition of Raf-mediated phosphorylation/activation of MEK1/2. Type of assay: biochemical. Particulars: for inhibition of MEK1 and MEK2: general statement; for inhibition of Raf phosphorylation of MEK1 and MEK2: stated as demonstrated by the applicant.
For another assay, the system named is cancer cells. Kind of assay: Radiosensitization of cancer cells. It counts as cell-based. As to conditions: general statement.
Assay [4] concerns MDA-MB-231 mammary cancer cells. Here is the method:
To further extend these investigations, the efficacy of U0126 was tested in the mammary cancer cell line MDA-MB-23 1. As described in the previous experiment, cells were exposed to 2 μM U0126 alone, radiation (3×2 Gy) alone, or to the combination of U0126 plus radiation. Control cells were treated with vehicle alone.

Assay [5] relates to A431 cells.
A further assay concerns p42/44 MAP kinase. Description: MAP kinase activity in HL-60 cells (immunoprecipitation, MBP substrate). It counts as cell-based, human. Particulars: ara-C. How it is done: FIG. 8. […] HL-60 cells were exposed to ara-C (10 μM) in the absence or presence of aminomethoxyflavone (PD98059; 2.5 μM) for 3 hours. MAP kinase activity (p42-ERK1/p44-ERK2) was determined by in vitro assay. In each case, values reflect the mean ±SE of duplicate determinations, and are expressed as a percentage of basal activity present in untreated controls.
Determination of MAPK Activity: Pelleted cells were rinsed in PBS, repelleted, and flash-frozen. Cell pellets were lysed in 25 mM Hepes, pH 7.4 containing 5 mM EGTA, 5 mM EDTA, supplemented with protease inhibitors (5 mM benzamidine, 1 mM phenylmethylsulfonylfluoride, 1 mg/ml soybean trypsin inhibitor, 40 μg/ml aprotinin, 1 μM microcystin LR) phosphatase inhibitors (0.5 mM trisodium orthovanadate, 0.5 mM tetrasodium pyrophosphate), and containing 0.056% sodium deoxycholate w/v, 1% Triton X-100 v/v, and 0.1% 2-mercaptoethanol v/v. Lysates were clarified by centrifugation at 5,000× g at 4° C. for 5 min. MAPK activity was assayed using MBP as a substrate following immunoprecipitation of p42/44 MAP kinase with protein A/agarose-conjugated antibody/antisera. Preimmune controls were also run to ensure selectivity of substrate phosphorylation. Reaction mixtures consisted of immunoprecipitated enzyme, substrate, and [γ-^32 P] ATP ([…]) in 25 mM Hepes, pH 7.4 containing 15 mM MgCl2, […], 0.01% (v/v) 2-mercaptoethanol, 1 μM […]. Reactions were initiated by the addition of substrate. MAPK reactions were terminated by transfer to p81 filter paper; filters were rinsed repeatedly in 185 mM orhtophosphoric acid, and then dehydrated in acetone. Total radioactivity in filters was determined by liquid scintillometry.
HL-60 cells were exposed to ara-C in the absence or presence of PD98059. Following this treatment, the cells were eveluated for MAP kinase activity, DNA strand breakage, clonogenicity potential and extent of apoptosis.

The subject of assay [6] is HL-60 cells. Kind of assay: Clonogenicity of HL-60 cells. As to conditions: either agent alone. Type of assay: cell-based, human. Here is the method: FIGS. 9a and 9b. […] HL-60 cells were exposed to ara-C (10 μM) in the absence or presence of aminomethoxyflavone (PD98059; 2.5 μM) for 6 hours. Apoptotic DNA damage and cell death were assessed as described in Methods. […] FIG. 9b.
Determination of Clonogenicity: Pelleted cells were rinsed extensively and prepared for soft-agar cloning. Cells were resuspended in cold PBS and seeded in 35-mm culture plates at a fixed density (400 cell/ml/well) in complete RPMI-1640 medium containing 20% fetal calf serum, 10% 5637-CM, and 0.3% Bacto agar. Cultures were mainatined for 10 to 12 days before formation of colonies (defined as groups of ≥50 cells) was scored.

For assay [7], the system named is HL-60 cells. Description: Taxol-mediated apoptosis of HL-60 cells. Particulars: Homo sapiens, HL-60, 6 h, read-out: cell death, taxol alone.

`O=C(NOCC1CC1)c1ccc(F)c(F)c1Nc1ccc(I)cc1Cl` [PD184352]: the “mode of action at MEK1/2” value in the assay on MEK1 and MEK2 [1] was “bind to MEK1/2 and sterically prevent Raf from binding”.

Take `N#C/C(=C(/N)Sc1ccc(N)cc1)c1ccccc1C(F)(F)F` [SL327]: in the assay on A431 cells [2], the “percentage of apoptotic cells (TUNEL)” value was “dramatic increase in the percentage of apoptotic cells”. In the assay on HepG2 hepatoma cells, the “increase in cell killing compared to radiation alone” value is on record as “approximately 2.5 fold” and the “response to combined drug/radiation treatment (TUNEL)” value is “effectively killed”. Besides, in the assay on primary hepatocytes, the “response to combined drug/radiation therapy (TUNEL)” value is recorded as “fairly resistant”. In the assay on MEK1 and MEK2 [3], the “inhibition of MEK1 and MEK2” value is “all inhibit MEK1 and MEK2”; the “inhibition of Raf phosphorylation of MEK1 and MEK2” value is “inhibiting the ability of Raf protein kinases to phosphorylate MEK1 and MEK2”. Also, in the assay with cancer cells, the “radiosensitization of cancer cells” value is “all cause radiosensitization of cancer cells”. In the assay with MEK1 and MEK2 [1], the “mode of action at MEK1/2” value is “bind to MEK1/2 and sterically prevent Raf from binding”.

Consider `N#CC(=C(N)Sc1ccccc1N)C(C#N)=C(N)Sc1ccccc1N` [U0126, 1,4-diamino-2,3-dicyano-1,4-bis[2-aminophenylthio]butadiene], for which the “percentage of apoptotic cells (TUNEL)” value with A431 cells [2] was “dramatic increase in the percentage of apoptotic cells”. For the same compound, in [4] (2 μM U0126 + 3×2 Gy), the “decreasing cellular proliferative potential versus either treatment alone (MTT)” value is reported as “far more effective”. The “proliferative rate (MTT)” value in assay [4] (2 μM U0126 alone or with 3×2 Gy, 3-4 days) was “Decreased proliferative rate”. Further, in the assay with MEK1 and MEK2 [3], the “inhibition of MEK1 and MEK2” value is “all inhibit MEK1 and MEK2”; the “inhibition of Raf phosphorylation of MEK1 and MEK2” value was “inhibiting the ability of Raf protein kinases to phosphorylate MEK1 and MEK2”. Besides, the “radiosensitization of cancer cells” value in the assay with cancer cells was “all cause radiosensitization of cancer cells”. Besides, the “abolishing cellular proliferation versus U0126 alone or irradiation alone (MTT)” value with A431 cells [5] (2 μM U0126 + 3×2 Gy) is “markedly more effective”. Moreover, the “proliferative rate (MTT)” value in the assay on A431 cells [5] (2 μM U0126 alone or with 3×2 Gy, 4-8 days) was “Decreased proliferative rate”. For the same compound, the “mode of action at MEK1/2” value in the assay with MEK1 and MEK2 [1] is “bind to MEK1/2 and sterically prevent Raf from binding”.

As for `Cl.Nc1ccn([C@@H]2O[C@H](CO)[C@@H](O)[C@@H]2O)c(=O)n1` [ara-C, 1-[β-D-arabinofuranosyl] cytosine hydrochloride], in the assay on p42/44 MAP kinase, the “MAP kinase activity, effect of ara-C” value is “stimulation of MAP kinase”. Moreover, in the assay on HL-60 cells [6], the “clonogenic potential, single agent” value is given as “neither alone had this effect”.

`CC(=O)O[C@H]1C(=O)[C@@]2(C)[C@H]([C@H](OC(=O)c3ccccc3)[C@]3(O)C[C@H](OC(=O)[C@H](O)[C@@H](NC(=O)c4ccccc4)c4ccccc4)C(C)=C1C3(C)C)[C@]1(OC(C)=O)CO[C@@H]1C[C@@H]2O` [taxol]: the cytotoxicity at 0.5 µM with HL-60 cells [7] was around 27%.
